biological target: unphosphorylated-BTK kinase domain (UP-BTK), GST-tagged human BTK (389-659aa) (Homo sapiens (Human), UniProt Q06187); assay: BTK Kinase Lanthascreen Binding Assay; conditions: Lanthascreen binding, 60 minutes incubation; pIC50 = negative log of the IC50 in molar
Protocol: BTK Kinase Lanthascreen Binding Assay:
A BTK kinase lanthascreen binding assay monitors compound binding to unphosphorylated-BTK kinase domain (UP-BTK), by competing with a fluorescent labeled tracer. […] Data were analyzed using Xlfit™ version 5.3 from ID Business Solutions (Guildford), Microsoft Excel add-in. pIC50 refers to the negative log of the IC50 in molar.

Sequence of unphosphorylated-BTK kinase domain (UP-BTK), GST-tagged human BTK (389-659aa) (Q06187 389-659): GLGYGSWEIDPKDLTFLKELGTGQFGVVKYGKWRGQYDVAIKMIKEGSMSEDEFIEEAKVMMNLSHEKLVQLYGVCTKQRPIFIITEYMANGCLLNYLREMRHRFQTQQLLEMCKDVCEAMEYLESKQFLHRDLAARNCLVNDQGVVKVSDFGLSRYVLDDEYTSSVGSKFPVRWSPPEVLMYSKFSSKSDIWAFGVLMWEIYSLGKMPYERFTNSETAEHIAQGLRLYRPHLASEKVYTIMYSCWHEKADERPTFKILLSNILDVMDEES

| BTK_I_binding pIC50 | Compound |
| --- | --- |
| 7.03 | C=CC(=O)N[C@H]1CCC[C@H]1NC(=O)c1sc2nccc3c2c1NC(=O)N3c1cnc(Oc2cccnc2C)cc1C [Example 489, N-((1R,2S)-2-Acrylamidocyclopentyl)-5-(4-methyl-6-((2-methylpyridin-3-yl)oxy)pyridin-3-yl)-4-oxo-4,5-dihydro-3H-1-thia-3,5,8-triazaacenaphthylene-2-carboxamide] |
| 7.40 | C=CC(=O)N[C@H]1CCC[C@H]1NC(=O)c1sc2nccc3c2c1NC(=O)N3c1cnc(Oc2cccnc2)cc1C [Example 490, N-((1R,2S)-2-Acrylamidocyclopentyl)-5-(4-methyl-6-(pyridin-3-yloxy)pyridin-3-yl)-4-oxo-4,5-dihydro-3H-1-thia-3,5,8-triazaacenaphthylene-2-carboxamide] |
| 7.43 | C=CC(=O)N[C@H]1CCC[C@H]1NC(=O)c1sc2nccc3c2c1NC(=O)N3c1ccc(Oc2cccnc2)cn1 [Example 491, N-((1R,2S)-2-Acrylamidocyclopentyl)-4-oxo-5-(5-(pyridin-3-yloxy)pyridin-2-yl)-4,5-dihydro-3H-1-thia-3,5,8-triazaacenaphthylene-2-carboxamide] |
| 6.66 | C=CC(=O)N[C@H]1CCC[C@H]1NC(=O)c1sc2nccc3c2c1NC(=O)N3c1ccc(Oc2cncnc2)nc1C [Example 492, N-((1R,2S)-2-Acrylamidocyclopentyl)-5-(2-methyl-6-(pyrimidin-5-yloxy)pyridin-3-yl)-4-oxo-4,5-dihydro-3H-1-thia-3,5,8-triazaacenaphthylene-2-carboxamide] |
| 7.32 | C=CC(=O)N[C@H]1CCC[C@H]1NC(=O)c1sc2nccc3c2c1NC(=O)N3c1ccc(Oc2cccnc2C)cn1 [Example 493, N-((1R,2S)-2-Acrylamidocyclopentyl)-5-(5-((2-methylpyridin-3-yl)oxy)pyridin-2-yl)-4-oxo-4,5-dihydro-3H-1-thia-3,5,8-triazaacenaphthylene-2-carboxamide] |
| 7.37 | C=CC(=O)N[C@H]1CCC[C@H]1NC(=O)c1sc2nccc3c2c1NC(=O)N3c1ccc(Oc2cccnc2)nc1C [Example 494, N-((1R,2S)-2-Acrylamidocyclopentyl)-5-(2-methyl-6-(pyridin-3-yloxy)pyridin-3-yl)-4-oxo-4,5-dihydro-3H-1-thia-3,5,8-triazaacenaphthylene-2-carboxamide] |
| 6.63 | C=CC(=O)N[C@H]1CCC[C@H]1NC(=O)c1sc2nccc3c2c1NC(=O)N3c1ccc(Oc2ccc(C)nc2)nc1C [Example 495, N-((1R,2S)-2-Acrylamidocyclopentyl)-5-(2-methyl-6-((6-methylpyridin-3-yl)oxy)pyridin-3-yl)-4-oxo-4,5-dihydro-3H-1-thia-3,5,8-triazaacenaphthylene-2-carboxamide] |
| 7.48 | C=CC(=O)N[C@H]1CCC[C@H]1NC(=O)c1sc2nccc3c2c1NC(=O)N3c1ccc(Oc2cncnc2)cc1 [Example 508, N-((1R,2S)-2-acrylamidocyclopentyl)-4-oxo-5-(4-(pyrimidin-5-yloxy)phenyl)-4,5-dihydro-3H-1-thia-3,5,8-triazaacenaphthylene-2-carboxamide] |

From US10934310B2, “Inhibitors of Bruton's tyrosine kinase and method of their use” (JANSSEN PHARMACEUTICA NV, priority 2015, dated 2021)
